The term Ki denotes a measure of affinity in units of concentration, obtained from inhibition or displacement.

One assay concerns the target T1, Adenosine A1 receptor (Homo sapiens, UniProt P30542).
T1 sequence (P30542 1-326): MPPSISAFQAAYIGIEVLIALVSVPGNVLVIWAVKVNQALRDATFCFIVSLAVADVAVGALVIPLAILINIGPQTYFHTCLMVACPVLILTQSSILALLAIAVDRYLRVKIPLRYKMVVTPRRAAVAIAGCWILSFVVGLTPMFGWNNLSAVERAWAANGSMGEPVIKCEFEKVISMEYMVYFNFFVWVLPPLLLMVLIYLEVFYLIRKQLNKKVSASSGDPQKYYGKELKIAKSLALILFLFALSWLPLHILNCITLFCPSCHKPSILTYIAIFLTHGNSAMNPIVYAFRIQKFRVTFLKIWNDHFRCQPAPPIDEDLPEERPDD
The assay can be described thus: A1 antagonist function (no method described). It counts as cell-based.

Another assay has as its system C57bl/6 mice. The assay can be described thus: Haloperidol-induced catalepsy study in C57bl/6 mice. It counts as in vivo. The settings on record: orally dosed at 10 mg/kg; haloperidol 1.5 mg/kg s.c.; test 1 hour after oral dose. As for the experimental part: Haloperidol-induced catalepsy study in C57bl/6 mice
Mature male C57bl/6 mice (9-12 week old from ACE) were housed two per cage in a rodent room. Room temperature was maintained at 64-79 degrees and humidity at 30-70% and room lighting at 12 hrs light/12 hrs dark cycle. On the study day, mice were transferred to the study room. The mice were injected subcutaneously with haloperidol (Sigma H1512, 1.0 mg/ml made in 0.3% tartaric acid, then diluted to 0.2 mg/ml with saline) or vehicle at 1.5 mg/kg, 7.5ml/kg. The mice were then placed in their home cages with access to water and food. 30 minutes later, the mice were orally dosed with vehicle (0.3% Tween 80 in saline) or compounds at 10 mg/kg, 10 ml/kg (compounds, 1mg/ml, made in 0.3% Tween 80 in saline, sonicated to obtain a uniform suspension). The mice were then placed in their home cages with access to water and food. 1 hour after oral dose, the catalepsy test was performed. A vertical metal-wire grid (1.0 cm squares) was used for the test. The mice were placed on the grid and given a few seconds to settle down and their immobility time was recorded until the mice moved their back paw(s). The mice were removed gently from the grid and put back on the grid and their immobility time was counted again. The measurement was repeated three times. The average of three measurements was used for data analysis.

Assay [1] concerns the target T2, human A2a adenosine receptor (Homo sapiens, UniProt P29274).
T2 construct: purchased PerkinElmer RB-HA2a; host or cells: HEK293 cell plasma membrane
The assay can be described thus: Ligand binding assay for adenosine A2a receptor ([3H]CGS21680, HEK293 plasma membrane). The following applies: radioligand [3H]CGS21680, HEK293 membranes, room temperature 2 hours; read-out: Ki (nM) A2a binding. As for the experimental part: Ligand Binding Assay for Adenosine A2a Receptor
Ligand binding assay of adenosine A2a receptor was performed using plasma membrane of HEK293 cells containing human A2a adenosine receptor (PerkinElmer, RB-HA2a) and radioligand [^3H]CGS21680 (PerkinElmer, NET1021). Assay was set up in 96-well polypropylene plate in total volume of 200 µl by sequentially adding 20 µL1:20 diluted membrane, 130 µLassay buffer (50 mM Tris·HCl, pH7.4 10 mM MgCl2, 1 mM EDTA) containing [^3H] […] Nonspecific binding was determined by […] NECA. Reaction was carried out at room temperature for 2 hours before filtering through 96-well GF/C filter plate pre-soaked in 50 mM Tris·HCl, pH7.4 containing 0.3% polyethylenimine. Plates were then washed 5 times with cold 50 mM Tris·HCl, pH7.4, dried and sealed at the bottom. Microscintillation fluid 30 µl was added to each well and the top sealed. Plates were counted on Packard Topcount for [^3H]. Data was analyzed in Microsoft Excel and GraphPad Prism programs.

The target of assay [2] is T3, human adenosine A2a receptors (Homo sapiens, UniProt P29274).
T3 construct: expressed in transfected cells; host or cells: CHO-K1 cells with cAMP-inducible beta-galactosidase reporter gene
T3 sequence (P29274 whole entry): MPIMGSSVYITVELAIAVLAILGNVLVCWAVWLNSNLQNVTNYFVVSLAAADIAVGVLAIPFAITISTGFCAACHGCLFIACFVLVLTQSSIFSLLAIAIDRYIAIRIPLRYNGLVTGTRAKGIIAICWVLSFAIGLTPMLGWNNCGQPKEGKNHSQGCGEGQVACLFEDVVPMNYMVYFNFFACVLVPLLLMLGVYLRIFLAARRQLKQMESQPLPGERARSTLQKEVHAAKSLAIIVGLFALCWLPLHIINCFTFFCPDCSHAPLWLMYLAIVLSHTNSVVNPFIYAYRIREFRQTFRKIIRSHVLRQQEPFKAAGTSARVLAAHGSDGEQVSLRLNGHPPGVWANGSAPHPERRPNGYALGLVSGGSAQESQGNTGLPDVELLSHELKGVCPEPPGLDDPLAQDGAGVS
Briefly: Adenosine A2a receptor functional assay, antagonist mode (cAMP-inducible beta-galactosidase reporter, 50 nM NECA). Type of assay: cell-based. The following applies: CHO-K1 cells, read-out: Ki (nM) A2a antagonist function. As for the experimental part:
Adenosine A2a Receptor Functional Assay
CHO-K1 cells overexpressing human adenosine A2a receptors and containing cAMP-inducible beta-galactosidase reporter gene were seeded at 40-50K/well into 96-well tissue culture plates and cultured for two days. On assay day, cells were washed once with 200 µL assay medium (F-12 nutrient mixture/0.1 % BSA). For agonist assay, adenosine A2a receptor agonist NECA was subsequently added and cell incubated at 37°C, 5% CO2 for 5 hrs before stopping reaction. In the case of antagonist assay, cells were incubated with antagonists for 5 minutes at R.T. followed by addition of 50 nM NECA. Cells were then incubated at 37°C, 5% CO2 for 5 hrs before stopping experiments by washing cells with PBS twice. 50 µL 1X lysis buffer (Promega, 5X stock solution, needs to be diluted to 1X before use) was added to each well and plates frozen at -20°C. For β-galactosidase enzyme colorimetric assay, plates were thawed out at room temperature and 50 µL 2X assay buffer (Promega) added to each well. Color was allowed to develop at 37°C for 1 h or until reasonable signal appeared. Reaction was then stopped with 150 µL 1 M sodium carbonate. […] Data was analyzed in Microsoft Excel and GraphPad Prism programs.

T2 sequence (P29274 whole entry): as above

`Nc1nc(-c2ccco2)c2c(n1)-c1ccccc1C2=O` [Compound 3, 2-amino-4-furan-2-yl-indeno[1,2-d]pyrimidin-5-one]: the Ki on Adenosine A1 receptor is 0.288 nM. Further, in the assay with C57bl/6 mice, the “inhibition of haloperidol-induced catalepsy” value is given as 90%.
With `CN(C)CCOC(=O)c1c(N)nc(-c2ccco2)c2c1-c1ccccc1C2=O` [Compound 70, 9H-indeno[2,1-c]pyridine-4-carboxylic acid, 3-amino-1-furan-2-yl-9-oxo-, 2-dimethylamino-ethyl ester], the Ki is 9.89 nM in assay [1], 0.44 nM in assay [2] and 20.1 nM on Adenosine A1 receptor. Further, the “inhibition of haloperidol-induced catalepsy” value with C57bl/6 mice worked out at 87%.
As for `N#Cc1c(N)nc(-c2ccco2)c2c1-c1ccccc1C2O` (stereo not drawn) [Compound 89], the inhibition constant (Ki) is 5.85 nM in assay [1], 1.12 nM in assay [2] and 11.2 nM on Adenosine A1 receptor.
For `CN1CCCC1COC(=O)c1c(N)nc(-c2ccccc2)c2c1-c1ccccc1C2=O` (stereo not drawn) [Compound 90], in that order: 202 nM, 57.7 nM and over 300 nM.
`Nc1nc(-c2ccccc2)c2c(c1C(=O)OCCN1CCOCC1)-c1ccccc1C2=O` [Compound 91]: the Ki in assay [1] came to 208 nM; in assay [2], 22.1 nM; at Adenosine A1 receptor it was 14.7 nM.
For `CC(COC(=O)c1c(N)nc(-c2ccccc2)c2c1-c1ccccc1C2=O)CN(C)C` (stereo not drawn) [Compound 92], in that order: 38.8 nM, 13.9 nM and 32.9 nM.
For `CN(C)CCOC(=O)c1c(N)nc(-c2ccsc2)c2c1-c1ccccc1C2=O` [Compound 93], in that order: 64.1 nM, 23.6 nM and 104 nM.
In the case of `C=CCCc1nc(N)c(C#N)c2c1C(=O)c1ccccc1-2` [Compound 94], the inhibition constant (Ki) in assay [1] was 49.5 nM; in assay [2] it was over 1000 nM; at Adenosine A1 receptor, 36 nM.
On to `N#Cc1c(N)nc(C2CCCCC2)c2c1-c1ccccc1C2=O` [Compound 95], for which the Ki in assay [1] is 338 nM; in assay [2], over 1000 nM; on Adenosine A1 receptor it was 110 nM.
For `CC(CN(C)C)OC(=O)c1c(N)nc(-c2ccco2)c2c1-c1ccccc1C2=O` (stereo not drawn) [Compound 96] the same measures were 48.5 nM, 10.1 nM and 52.5 nM.
